Results: the NIST ThermoML archive (doi:10.1021/je8003832)

Experiment: xn = mol fraction of the nth substance listed
Conditions: 101 kPa, Liquid

CCCCn1cc[n+](C)c1.O=S(=O)([O-])C(F)(F)F [1-butyl-3-methylimidazolium trifluoromethanesulfonate] + O
Conditions	mass density, 303.15 K [kg/m3]	mass density, 308.15 K [kg/m3]	mass density, 313.15 K [kg/m3]	mass density, 318.15 K [kg/m3]	viscosity, 303.15 K [mPa·s]	viscosity, 308.15 K [mPa·s]	viscosity, 313.15 K [mPa·s]	viscosity, 318.15 K [mPa·s]
x2 = 0	1298.4	1294.9	1291.4	1287.8	63.19	51.73	42.46	35.17
x2 = 0.1032	1294.5	1291	1287.5	1283.8	45.7	37.23	30.93	25.04
x2 = 0.1939	1291.2	1287.7	1284.1	1280.4	35.41	29.27	24.46	20.79
x2 = 0.2987	1286.5	1283	1279.4	1275.8	28.97	24.28	20.53	17.55
x2 = 0.3999	1280.8	1277.3	1273.8	1270.2	23.25	19.95	16.88	14.38
x2 = 0.501	1272.8	1269.3	1265.7	–	19.19	16.8	13.95	–
x2 = 0.5923	1263	1259.5	1255.9	–	15.47	13.2	11.21	–
x2 = 0.7023	1246.2	1242.5	1238.8	–	11.56	10.13	8.605	–
x2 = 0.799	1220.1	1216.6	1212.9	–	8.206	6.932	5.989	–
x2 = 0.901	1164.6	1160.6	1156.7	–	4.552	3.869	3.376	–
